In one test the test system is HCT-116 cell line. Description: Inhibition of cell growth, tetrazolium salt (MTT) assay. In kind it is cell-based. The settings on record: for IC50: Homo sapiens, HCT-116, 120 h, MTT, three to five days. The method, boiled down:
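Growth inhibition by MTT reduction at 540 nm (0.2 mg/mL, 4 h at 37° C, formazan dissolved in DMSO), normalized to cells given only 0.5% v/v DMSO. HCT-116 cultures in McCoy's 5A were dosed 4 h post-plating and kept three to five days at 37° C, 5% CO2.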

Test [1] concerns the target human CDK4 and genetically truncated (1-264) cyclin D3 (Homo sapiens, UniProt P11802). Description: Inhibition of CDK4/Cyclin D Retinoblastoma Kinase Activity. It is filed as biochemical. The settings on record: for Ki: apparent Ki, CDK4/truncated cyclin D3, Rb fragment substrate, 25 μM ATP. As for the experimental part:
Cyclin-dependent kinase activity was measured by quantifying the enzyme-catalyzed, time-dependent incorporation of radioactive phosphate from [^32P]ATP or [^33P]ATP into a protein substrate. Unless noted otherwise, assays were performed in 96-well plates in a total volume of 50 μL, in the presence of 10 mM HEPES (N-[2-hydroxyethyl]piperazine-N′-[2-ethanesulfonic acid]) (pH 7.4), 10 mM MgCl2, 25 μM adenosine triphosphate (ATP), 1 mg/mL ovalbumin, 5 μg/mL leupeptin, 1 mM dithiothreitol, 10 mM β-glycerophosphate, 0.1 mM sodium vanadate, 1 mM sodium fluoride, 2.5 mM ethylene glycol-bis(β-aminoethyl ether)-N,N,N′N′-tetraacetic acid (EGTA), 2% (v/v) dimethylsulfoxide, and 0.03-0.4 μCi [^32/33P]ATP per reaction. Reactions were initiated with enzyme, incubated at 30° C., and terminated after 20 minutes by the addition of ethylenediaminetetraacetic acid (EDTA) to 250 mM. The phosphorylated substrate was then captured on a nitrocellulose or phosphocellulose membrane using a 96-well filtration manifold, and unincorporated radioactivity was removed by repeated washing with 0.85% phosphoric acid. Radioactivity was quantified by exposing the dried membranes to a phosphorimager.
Inhibition was measured relative to control wells that contained all reaction components including 2% (v/v) DMSO but no compound, after subtraction of background radioactivity measured in the absence of enzyme. Apparent Ki values of discrete compounds were measured by assaying enzyme activity in the presence of different inhibitor compound concentrations and subtracting the background radioactivity measured in the absence of enzyme. The kinetic parameters (kcat, Km for ATP) were measured for each enzyme under the usual assay conditions by determining the dependence of initial rates on ATP concentration. Inhibition data were fit to an equation for competitive inhibition using Kaleidagraph (Synergy Software), or were fit to an equation for competitive tight-binding inhibition using the software KineTic (BioKin, Ltd.).
Inhibition of CDK4/Cyclin D Retinoblastoma Kinase Activity:
A complex of human CDK4 and genetically truncated (1-264) cyclin D3 was purified using traditional biochemical chromatographic techniques from insect cells that had been co-infected with the corresponding baculovirus expression vectors (see e.g., Meijer and Kim, “Chemical Inhibitors of Cyclin-Dependent Kinases,” Methods in Enzymol,. vol. 283 (1997), pp. 113-128.). The enzyme complex (5 nM) was assayed with 0.3-0.5 μg of purified recombinant retinoblastoma protein fragment (Rb) as a substrate. The engineered Rb fragment (residues 386-928 of the native retinoblastoma protein; 62.3 kDa) contains the majority of the phosphorylation sites found in the native 106-kDa protein, as well as a tag of six histidine residues for ease of purification. Phosphorylated Rb substrate was captured by microfiltration on a nitrocellulose membrane and quantified using a phosphorimager as described above. For measurement of tight-binding inhibitors, the assay duration was extended to 60 minutes, during which the time-dependence of product formation was linear and initial rate conditions were met.

The target of a further test is CDK2/Cyclin A (Homo sapiens, UniProt P24941). The test is described as follows: Inhibition of CDK2/Cyclin A Retinoblastoma Kinase Activity. In kind it is biochemical. The settings on record: for Ki: apparent Ki, CDK2/proteolyzed cyclin A, Rb fragment substrate, 25 μM ATP. The method, boiled down: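 Baculovirus-expressed CDK2 complexed with proteolyzed cyclin A (10 or 19 nM), Rb fragment substrate, 25 μM [32P/33P]ATP, HEPES pH 7.4, 30 °C for 60 or 75 min under initial-rate conditions. Filter capture and phosphorimager readout; apparent Ki fitted to competitive or tight-binding competitive inhibition.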

Setting [2] is: first HCT-116 column (c4), read-out: HCT-116 IC50.
[3] abbreviates: second HCT-116 column (c5), read-out: HCT-116 IC50.

SMILES strings stand for the structures. Counter-ions that a name gives are not always drawn. Like-named read-outs stand apart in the source and are kept apart here.

Chain of human CDK4 and genetically truncated (1-264) cyclin D3 (P11802 whole entry, the tested form may be a part): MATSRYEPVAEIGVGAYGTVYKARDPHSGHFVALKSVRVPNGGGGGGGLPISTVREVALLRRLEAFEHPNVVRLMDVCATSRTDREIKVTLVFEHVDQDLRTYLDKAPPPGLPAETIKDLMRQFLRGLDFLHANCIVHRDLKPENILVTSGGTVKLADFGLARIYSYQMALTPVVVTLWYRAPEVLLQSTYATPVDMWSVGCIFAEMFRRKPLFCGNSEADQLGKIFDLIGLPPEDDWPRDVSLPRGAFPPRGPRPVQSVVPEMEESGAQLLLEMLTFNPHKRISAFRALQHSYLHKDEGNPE
Chain of human CDK4 and genetically truncated (1-264) cyclin D3 (P30281 1-264 partner): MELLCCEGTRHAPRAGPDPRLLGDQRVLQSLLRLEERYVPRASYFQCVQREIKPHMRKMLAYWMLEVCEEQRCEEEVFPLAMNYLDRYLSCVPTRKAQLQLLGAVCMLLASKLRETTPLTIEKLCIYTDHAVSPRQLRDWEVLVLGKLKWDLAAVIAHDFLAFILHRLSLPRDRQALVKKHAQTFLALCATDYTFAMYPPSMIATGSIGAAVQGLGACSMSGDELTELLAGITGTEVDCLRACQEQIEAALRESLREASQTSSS

For `CC(CN(C)C)Oc1ccc(S(=O)(=O)N2CCC(Nc3nc(N)c(C(=O)c4c(F)cccc4F)s3)CC2)cn1` (racemic) [Example H13, 1-(4-Amino-2-{1-[6-(2-dimethylamino-1RS-methyl-ethoxy)-pyridine-3-sulfonyl]-piperidin-4-ylamino}-thiazol-5-yl)-1-(2,6-fifluoro-phenyl)-methanone Dihydrochloride], the results for the IC50 in the test with HCT-116 cell line (setting [2]) and with HCT-116 cell line (setting [3]) were 90 nM and 400 nM, respectively. Also, the Ki in test [1] was determined as 0.65 nM; at CDK2/Cyclin A, 1.1 nM.

As to `Nc1nc(NC2CCN(C(=O)[C@@H]3C[C@H]3c3ccccc3)CC2)sc1C(=O)c1c(F)cccc1F` (relative stereo) [Example Q55], the “HCT-116 % Inhibition at 0.1 μM” value with HCT-116 cell line (0.1 μM compound, HCT-116, Table 4) amounted to 10%. The “HCT-116 % Inhibition at 0.25 μM” value with HCT-116 cell line (0.25 μM compound, HCT-116, Table 4) is 31%. In addition, the “CDK4 % Inhibition at 0.03 μM” value in test [1] (0.03 μM compound, Table 4) was determined as 43%. In addition, the “CDK2 % Inhibition at 0.03 μM” value at CDK2/Cyclin A (0.03 μM compound, Table 4) was 29%.

As for `Nc1nc(NC2CCN(C(=O)[C@@H]3C[C@H]3c3ccccc3)CC2)sc1C(=O)c1c(F)cccc1F` (relative stereo) [Example R92], the “HCT-116 % Inhibition at 0.1 μM” value with HCT-116 cell line (HCT-116 cells, at 0.1 μM) is 0%. The “HCT-116 5 Inhibition at 0.25 μM” value with HCT-116 cell line (HCT-116 cells, at 0.25 μM) came to 40. The “CDK4 % Inhibition at 0.03 μM” value in test [1] (at 0.03 μM) is listed as −2%. Besides, the “CDK2 % Inhibition at 0.03 μM” value on CDK2/Cyclin A (at 0.03 μM) is recorded as −9%.

As for `CN1CCC[C@@H](COc2ccc(S(=O)(=O)N3CCC(Nc4nc(N)c(C(=O)c5c(F)cccc5F)s4)CC3)cn2)C1` (stereo in doubt) [Example H10, 1-(4-Amino-2-{1-[6-(1-methyl-piperidin-3R-ylmethoxy)-pyridine-3-sulfonyl]-piperidin-4-ylamino}-thiazol-5-yl)-1-(2,6-difluoro-phenyl)-methanone], the results for the IC50 in the test with HCT-116 cell line (setting [2]) and in the test on HCT-116 cell line (setting [3]) were 48 nM and more than 500 nM, respectively. Further, the Ki in test [1] was found to be 0.7 nM; on CDK2/Cyclin A, 1.1 nM.

With `Nc1nc(NC2CCN(Cc3ccccc3)CC2)sc1C(=O)c1c(F)cccc1F` [Example A3, 1-[4-Amino-2-(1-benzyl-piperidin-4-ylamino)-thiazol-5-yl]-1-(2,6-difluoro-phenyl)-methanone], the IC50 in the test on HCT-116 cell line (setting [2]) is 1700 nM; with HCT-116 cell line (setting [3]), 3100 nM. Further, the Ki in test [1] came to 130 nM; at CDK2/Cyclin A, 490 nM.

For `CN1CCC(Nc2nc(N)c(C(=O)c3c(F)cccc3F)s2)CC1` [Example A4, 1-[4-Amino-2-(1-methyl-piperidin-4-ylamino)-thiazol-5-yl]-1-(2,6-difluoro-phenyl)-methanone], the values for the IC50 in the test on HCT-116 cell line (setting [2]) and in the test on HCT-116 cell line (setting [3]) were 1700 nM and 3800 nM, respectively. The Ki is 930 nM in test [1] and 12000 nM at CDK2/Cyclin A.

Regarding `Nc1nc(NC2CN(C(c3ccccc3)c3ccccc3)C2)sc1C(=O)c1c(F)cccc1F` [Example A14, [4-Amino-2-(1-benzhydryl-azetidin-3-ylamino)-thiazol-5-yl]-(2,6-difluoro-phenyl)-methanone], the IC50 in the test with HCT-116 cell line (setting [2]) and with HCT-116 cell line (setting [3]) was more than 5000 nM each time. Also, the Ki (in test [1]; at CDK2/Cyclin A) was more than 2000 nM each time.

`CN(C)c1ccc(NC(=O)N2CCC(Nc3nc(N)c(C(=O)c4c(F)cccc4F)s3)CC2)cc1` [Example B2, 4-[4-Amino-5-(2,6-difluoro-benzoyl)-thiazol-2-ylamino]-piperidine-1-carboxylic Acid (4-Dimethylamino-phenyl)-amide]: the IC50 in the test on HCT-116 cell line (setting [2]) turned out to be 350 nM; in the test with HCT-116 cell line (setting [3]) it was 950 nM. The figures for the Ki (in test [1]; on CDK2/Cyclin A) were 110 nM and 28 nM, respectively.

As to `Nc1nc(NC2CCN(C(=O)c3ccc(I)cc3)CC2)sc1C(=O)c1c(F)cccc1F` [Example C1, {4-Amino-2-[1-(4-iodo-benzoyl)-piperidin-4-ylamino]-thiazol-5-yl}-(2,6-difluoro-phenyl)-methanone], the IC50 in the test with HCT-116 cell line (setting [2]) is 1200 nM; with HCT-116 cell line (setting [3]), 2300 nM. Also, the figures for the Ki (in test [1]; on CDK2/Cyclin A) were 11 nM and 68 nM, respectively.

With `COc1ccc(C(=O)N2CCC(Nc3nc(N)c(C(=O)c4c(F)cccc4F)s3)CC2)cc1` [Example C2, {4-Amino-2-[1-(4-methoxy-benzoyl)-piperidin-4-ylamino]-thiazol-5-yl}-(2,6-difluoro-phenyl)-methanone], the IC50 in the test with HCT-116 cell line (setting [2]) is 770 nM; in the test on HCT-116 cell line (setting [3]) it was 1900 nM. Besides, the Ki in test [1] was determined as 9.6 nM; at CDK2/Cyclin A it was 65 nM.

For `Nc1nc(NC2CCN(C(=O)Oc3ccc(Cl)cc3)CC2)sc1C(=O)c1c(F)cccc1F` [Example C3, 4-[4-Amino-5-(2,6-difluoro-benzoyl)-thiazol-2-ylamino]-piperidine-1-carboxylic Acid 4-Chloro-phenyl Ester], the IC50 in the test with HCT-116 cell line (read-out: HCT-116 IC50, first HCT-116 column (c4)) worked out at 330 nM; in the test on HCT-116 cell line (read-out: HCT-116 IC50, second HCT-116 column (c5)), 1200 nM. Besides, the Ki turned out to be 3.7 nM in test [1] and 17 nM on CDK2/Cyclin A.

As to `COC(=O)c1ccc(C(=O)N2CCC(Nc3nc(N)c(C(=O)c4c(F)cccc4F)s3)CC2)cc1` [Example C4, 4-{4-[4-Amino-5-(2,6-difluoro-benzoyl)-thiazol-2-ylamino]-piperidine-1-carbonyl}-benzoic Acid Methyl Ester], the IC50 worked out at 800 nM in the test with HCT-116 cell line (setting [2]) and 2000 nM in the test with HCT-116 cell line (setting [3]). Further, the Ki was determined as 11 nM in test [1] and 81 nM at CDK2/Cyclin A.

With `CC(C)S(=O)(=O)c1csc(C(=O)N2CCC(Nc3nc(N)c(C(=O)c4c(F)cccc4F)s3)CC2)c1Cl` [Example C5, (4-Amino-2-{1-[3-chloro-4-(propane-2-sulfonyl)-thiophene-2-carbonyl]-piperidin-4-ylamino}-thiazol-5-yl)-(2,6-difluoro-phenyl)-methanone], the results for the IC50 with HCT-116 cell line (setting [2]) and in the test with HCT-116 cell line (setting [3]) were 1900 nM and 4000 nM, respectively. The Ki in test [1] came out at 8 nM; on CDK2/Cyclin A it was 81 nM.

Regarding `Nc1nc(NC2CCN(C(=S)Oc3ccccc3)CC2)sc1C(=O)c1c(F)cccc1F` [Example C6, 4-[4-Amino-5-(2,6-difluoro-benzoyl)-thiazol-2-ylamino]-piperidine-1-carbothioic Acid O-Phenyl Ester], the IC50 with HCT-116 cell line (setting [2]) was determined as 220 nM; with HCT-116 cell line (setting [3]), 900 nM. Also, the Ki in test [1] worked out at 7.9 nM; on CDK2/Cyclin A, 6.1 nM.

With `COc1ccc(/C=C/C(=O)N2CCC(Nc3nc(N)c(C(=O)c4c(F)cccc4F)s3)CC2)c(Cl)c1OC` [Example C7, 1-{4-[4-Amino-5-(2,6-difluoro-benzoyl)-thiazol-2-ylamino]-piperidin-1-yl}-3-(2-chloro-3,4-dimethoxy-phenyl)-propenone], the IC50 with HCT-116 cell line (setting [2]) worked out at 600 nM; in the test with HCT-116 cell line (setting [3]), 1600 nM. Further, the Ki is 40 nM in test [1] and 32 nM on CDK2/Cyclin A.

Take `Nc1nc(NC2CCN(C(=O)c3sccc3Cl)CC2)sc1C(=O)c1c(F)cccc1F` [Example C8, {4-Amino-2-[1-(3-chloro-thiophene-2-carbonyl)-piperidin-4-ylamino]-thiazol-5-yl}-(2,6-difluoro-phenyl)-methanone]: the IC50 with HCT-116 cell line (setting [2]) was 460 nM; in the test on HCT-116 cell line (setting [3]) it was 1300 nM. Further, the Ki in test [1] turned out to be 41 nM; at CDK2/Cyclin A it was 45 nM.

A word on the IC50: it is the midpoint of a concentration-inhibition curve.

For the origin of these results see patent US20050101595A1, “N-containing cycloalkyl-substituted amino-thiazole derivatives and pharmaceutical compositions for inhibiting cell proliferation and methods for their use” (PFIZER INC., priority 2003, published 2005).
